According to US11446280B2, “Compounds and methods for the treatment of microbial infections” (Versitech Limited, priority 2017, dated 2022):
Values after ≈ are worked out from the molar mass of the structure shown.

Tested on: S. aureus pigment formation (staphyloxanthin production)
Experiment: In vitro pigment inhibition / staphyloxanthin production in S. aureus
Format: cell-based, Staphylococcus aureus
Conditions: S. aureus USA300, staphyloxanthin methanol extract OD 450 nm, compounds 300 nM to 700 nM, NP16 = 1
Procedure: S. aureus was propagated in Brain Heart Infusion broth (BHI) or on BHI agar (Oxoid). The in vitro pigment inhibition studies were performed by S. aureus USA300 cultured in BHI with or without the presence of inhibitor compounds at 37° C. and 250 rpm for 36-48 hours. The bacteria were washed twice with PBS prior to the staphyloxanthin purification with methanol. The OD of the extracts were monitor at 450 nm using DTX880 multi-plate reader spectrophotometer (Beckman). The concentration range tested for the compounds were between 300 nM to 700 nM, and control groups were added with equal volume of DMSO.
(§1) The IC50 values were obtained by fitting the inhibition data to a normal dose-response curve in SigmaPlot (CA).
(§2) The cytotoxicity of NP-16 and some of it analogues was tested against Raw 264.7 cells, and the cell tolerance of each compounds were documented in Table 3. Along with the in vitro staphyloxanthin production of the NP-16 analogues were being tested, the compounds can exert staphyloxanthin production inhibition. The staphyloxanthin from the overnight-cultured bacteria were extracted with methanol and quantified in via spectrophotometry. The results were presented in relative ratio to NP-16 in both the inhibition ratio as well as the TC50 in Table 3 (compound/analogue numbers correspond to those listed in Table 1).

SMILES	Relative ratio to NP16 based on inhibition ratio
Cc1ccccc1/C=C/C(=O)Nc1ccc(S(=O)(=O)N2CCCC2)cc1 [Compound 15, 3-(6-methylphenyl)-N-[4-(1-pyrrolidinylsulfonyl)phenyl]acryl-amide]	1.73
CC(=O)Oc1cccc(/C=C/C(=O)Nc2ccc(S(=O)(=O)N3CCCC3)cc2)c1 [Compound 17, 3-(5-acetoxylphenyl)-N-[4-(1-pyrrolidinylsulfonyl)phenyl]acryl-amide]	0.58
O=C(/C=C/c1cccc(-c2ccccc2)c1)Nc1ccc(S(=O)(=O)N2CCCC2)cc1 [Compound 20, 3-(5-phenylphenyl)-N-[4-(1-pyrrolidinylsulfonyl)phenyl]acryl-amide]	0.61
CC(=O)Oc1ccccc1/C=C/C(=O)Nc1ccc(S(=O)(=O)N2CCCC2)cc1 [Compound 18, 3-(6-acetoxylphenyl)-N-[4-(1-pyrrolidinylsulfonyl)phenyl]acryl-amide]	0.35
O=C(/C=C/c1cccc(Br)c1)Nc1ccc(S(=O)(=O)N2CCCC2)cc1 [Compound 11, 3-(5-bromophenyl)-N-[4-(1-pyrrolidinylsulfonyl)phenyl]acryl-amide]	1.03
O=C(/C=C/c1ccc(O)cc1)Nc1ccc(S(=O)(=O)N2CCCC2)cc1 [Compound 16, 3-(4-hydroxylphenyl)-N-[4-(1-pyrrolidinylsulfonyl)phenyl]acryl-amide]	0.33
Cc1ccc(/C=C/C(=O)Nc2ccc(S(=O)(=O)N3CCCC3)cc2)cc1 [Compound 14, 3-(4-methylphenyl)-N-[4-(1-pyrrolidinylsulfonyl)phenyl]acryl-amide]	0.83
CC(=O)Oc1ccc(/C=C/C(=O)Nc2ccc(S(=O)(=O)N3CCCC3)cc2)cc1 [Compound 19, 3-(4-acetoxylphenyl)-N-[4-(1-pyrrolidinylsulfonyl)phenyl]acryl-amide]	0.86
O=C(/C=C/c1ccc(Br)cc1)Nc1ccc(S(=O)(=O)N2CCCC2)cc1 [Compound 13, 3-(4-bromophenyl)-N-[4-(1-pyrrolidinylsulfonyl)phenyl]acryl-amide]	0.25
O=C(/C=C/c1ccccc1Br)Nc1ccc(S(=O)(=O)N2CCCC2)cc1 [Compound 12, 3-(6-bromophenyl)-N-[4-(1-pyrrolidinylsulfonyl)phenyl]acryl-amide]	2.35

Tested on: MDCK cells
Experiment: Cytotoxicity in MDCK cells (MTT assay)
Format: cell-based
Conditions: up to 500 μM
Procedure: (§3) The cytotoxicity of NP16 in MDCK cells was evaluated by MTT (3-[4,5-dimethylthiazol-2-yl]-2,5-diphenyltetrazolium bromide) assay according to manufacturer's instructions. A toxic control (1%) SDS was included to ensure the MTT assay was effective. The highest concentration of NP16 that could be used was 500 μM due to solubility limitations. SigmaPlot 11.0 (SPSS, IL) was used for graph plotting. Experiments were repeated twice in triplicate.
as §1

SMILES	Effect on the growth of MDCK cells
O=C(/C=C/c1ccccc1)Nc1ccc(S(=O)(=O)N2CCCC2)cc1 [Compound 1, 3-phenyl-N-[4-(1-pyrrolidinylsulfonyl)phenyl]acryl-amide]	no effect

Tested on: Raw 264.7 cells
Experiment: Cytotoxicity in Raw 264.7 cells (MTT assay)
Format: cell-based
Design: unit not given here
Conditions: highest concentration 500 μM
Procedure: (§4) The cytotoxicity of NP-16 and some of it analogues in Raw 264.7 cells was also evaluated by MTT (3-[4,5-dimethylthiazol-2-yl]-2,5-diphenyltetrazolium bromide) assay according to manufacturer's instructions. A toxic control (1%) SDS was included to ensure the MTT assay was working properly. The highest concentration of NP-16 analogues used was 500 μM due to solubility limitations. SigmaPlot 11.0 (SPSS, IL) was used for graph plotting. Experiments were carried out in triplicate and repeated twice.
as §2

SMILES	TC50 to Raw 264.7 cells
Cc1ccccc1/C=C/C(=O)Nc1ccc(S(=O)(=O)N2CCCC2)cc1 [Compound 15, 3-(6-methylphenyl)-N-[4-(1-pyrrolidinylsulfonyl)phenyl]acryl-amide]	>200
CC(=O)Oc1cccc(/C=C/C(=O)Nc2ccc(S(=O)(=O)N3CCCC3)cc2)c1 [Compound 17, 3-(5-acetoxylphenyl)-N-[4-(1-pyrrolidinylsulfonyl)phenyl]acryl-amide]	~75
O=C(/C=C/c1cccc(-c2ccccc2)c1)Nc1ccc(S(=O)(=O)N2CCCC2)cc1 [Compound 20, 3-(5-phenylphenyl)-N-[4-(1-pyrrolidinylsulfonyl)phenyl]acryl-amide]	>200
O=C(/C=C/c1ccccc1)Nc1ccc(S(=O)(=O)N2CCCC2)cc1 [Compound 1, 3-phenyl-N-[4-(1-pyrrolidinylsulfonyl)phenyl]acryl-amide]	>200
CC(=O)Oc1ccccc1/C=C/C(=O)Nc1ccc(S(=O)(=O)N2CCCC2)cc1 [Compound 18, 3-(6-acetoxylphenyl)-N-[4-(1-pyrrolidinylsulfonyl)phenyl]acryl-amide]	~150
O=C(/C=C/c1cccc(Br)c1)Nc1ccc(S(=O)(=O)N2CCCC2)cc1 [Compound 11, 3-(5-bromophenyl)-N-[4-(1-pyrrolidinylsulfonyl)phenyl]acryl-amide]	>200
O=C(/C=C/c1ccc(O)cc1)Nc1ccc(S(=O)(=O)N2CCCC2)cc1 [Compound 16, 3-(4-hydroxylphenyl)-N-[4-(1-pyrrolidinylsulfonyl)phenyl]acryl-amide]	75
Cc1ccc(/C=C/C(=O)Nc2ccc(S(=O)(=O)N3CCCC3)cc2)cc1 [Compound 14, 3-(4-methylphenyl)-N-[4-(1-pyrrolidinylsulfonyl)phenyl]acryl-amide]	>200
CC(=O)Oc1ccc(/C=C/C(=O)Nc2ccc(S(=O)(=O)N3CCCC3)cc2)cc1 [Compound 19, 3-(4-acetoxylphenyl)-N-[4-(1-pyrrolidinylsulfonyl)phenyl]acryl-amide]	~150
O=C(/C=C/c1ccc(Br)cc1)Nc1ccc(S(=O)(=O)N2CCCC2)cc1 [Compound 13, 3-(4-bromophenyl)-N-[4-(1-pyrrolidinylsulfonyl)phenyl]acryl-amide]	>200
O=C(/C=C/c1ccccc1Br)Nc1ccc(S(=O)(=O)N2CCCC2)cc1 [Compound 12, 3-(6-bromophenyl)-N-[4-(1-pyrrolidinylsulfonyl)phenyl]acryl-amide]	>200

Tested on: not listed separately
Experiment: Solubility limit in cytotoxicity testing
Format: physicochemical
Conditions: cytotoxicity (MTT) assay medium; read-out: Highest concentration that could be used due to solubility limitations
Procedure: as §3, §4

SMILES	solubility [µM]
O=C(/C=C/c1ccccc1)Nc1ccc(S(=O)(=O)N2CCCC2)cc1 [Compound 1, 3-phenyl-N-[4-(1-pyrrolidinylsulfonyl)phenyl]acryl-amide]	500 (≈ 178 µg/mL)

Target: 4,4-diapophytoene desaturase (CrtN) (Staphylococcus aureus, UniProt Q7A3E2)
Experiment: not given
Conditions: reference [5]; cited from earlier work

Sequence of 4,4-diapophytoene desaturase (CrtN) (Q7A3E2 whole entry): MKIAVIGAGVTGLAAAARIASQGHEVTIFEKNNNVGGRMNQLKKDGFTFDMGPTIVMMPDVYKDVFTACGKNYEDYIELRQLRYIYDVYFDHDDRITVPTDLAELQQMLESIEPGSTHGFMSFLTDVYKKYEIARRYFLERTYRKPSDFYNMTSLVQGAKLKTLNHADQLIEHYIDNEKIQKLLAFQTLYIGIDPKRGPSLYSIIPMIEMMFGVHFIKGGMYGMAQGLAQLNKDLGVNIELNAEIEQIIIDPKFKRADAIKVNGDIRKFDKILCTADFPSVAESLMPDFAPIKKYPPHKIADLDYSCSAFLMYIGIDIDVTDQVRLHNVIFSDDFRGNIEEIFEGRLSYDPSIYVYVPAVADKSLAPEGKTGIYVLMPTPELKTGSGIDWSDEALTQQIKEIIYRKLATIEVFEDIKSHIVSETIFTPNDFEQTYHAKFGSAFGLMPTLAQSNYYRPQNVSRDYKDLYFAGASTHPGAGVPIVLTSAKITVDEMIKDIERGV

SMILES	Inhibition of CrtN
c1ccc(Nc2ccccc2)cc1 [Diphenylamine]	high micromolar level

Tested on: polymorphonuclear leukocytes
Experiment: not given
Conditions: at high concentrations, reference [14]; cited from earlier work

SMILES	Chemotaxis, chemokinesis, chemiluminescence and superoxide anion production of polymorphonuclear leukocytes
CN(C/C=C/c1ccccc1)Cc1cccc2ccccc12 [naftifine]	suppress
